Laboratory results published in US9517988B2 (Sichuan Haisco Pharmaceutical Co., Ltd., priority 2013, dated 2016).
Where a name gives a salt, the structure may show the parent alone.

Legend:
ICR mice [1] = test: Righting reflex experiment on mice with prodrugs; assay type: in vivo; conditions: for ED50: Mus musculus; for SI: safety index, LD5/ED95, mice; for TI: therapeutic index, LD50/ED50, mice
Protocol: (§1) After adapting to the laboratory environment, the SPF-grade ICR mice were fasted for 12 hours.

[2] = Righting reflex experiment on mice with prodrugs; assay type: in vivo; conditions: ICR, mouse, in vivo, mice; for MTD: prodrugs; for LD50: intravenous injection, prodrugs in physiological saline
Protocol: as §1

ICR mice [3] = test: Righting reflex experiment on mice; conditions: for ED50: Mus musculus, iv; for Anesthesia induction time / Anesthesia maintenance time / HD7 / MTD: mice; for Anesthesia induction time / Anesthesia maintenance time: intravenous injection; for Anesthesia induction time: end of administration until loss of righting reflex; for Anesthesia maintenance time: loss until recovery of righting reflex; for HD7: dose required to cause a 7-min anesthesia; for SI: safety index, LD5/ED95, mice; for TI: therapeutic index, LD50/ED50, mice; for MTD: maximum dose causing 100% loss of righting reflex without death
Protocol: (§2) LD5 (5% lethal dose): dose required to cause 5% of mice to die in a test.
(§3) If a normal animal was able to immediately turn its body to normal upright position after being pushed over or made lying on its back, such a reflex was determined as the righting reflex. Otherwise, loss of the righting reflex and the time of loss were recorded, and a reflex recovery time was recorded when the animal restored the righting reflex. The period from finishing of drug administration until loss of the righting reflex was recorded as the anesthesia induction time, and the period from loss of the righting reflex until recovery of the righting reflex was recorded as the anesthesia maintenance time.
(§4) TI (therapeutic index, i.e. LD50/ED50), SI (safety index, i.e. LD5/ED95).
(§5) MTD (maximum tolerated dose): the maximum dose able to cause 100% to loss the righting index without death.
(§6) Indicators such as median effective dose (ED50), median lethal dose (LD50), therapeutic index (TI, i.e. LD50/ED50), safety index (SI, i.e. LD5/ED95), anesthesia induction time, anesthesia maintenance time, and maximum tolerated dose (MTD) were used to evaluate the effect and safety of anesthesia. […] After adapting to the laboratory environment, laboratory animals were fasted for 12 hours. On the next day, administration was carried out at 10 mg/kg body weight. Upon intravenous injection, the time of loss of the righting reflex was recorded. The period from finishing of drug administration until loss of the righting reflex was recorded as the anesthesia induction time, and the period from loss of the righting reflex until recovery of the righting reflex was recorded as the anesthesia maintenance time. The anesthesia induction time and the anesthesia maintenance time were used to indicate how strong an anesthetic effect was. Meanwhile, the dose required to cause a 7-min anesthesia (HD7) was measured and used to evaluate relative efficacy.

[4] = Righting reflex experiment on mice; conditions: both, ICR, mouse, in vivo; for MTD: intravenous; for LD50: iv
Protocol: as §2, §3, §4, §5, §6

[5] = mice, intravenous injection, prodrugs formulated with physiological saline, read-out: ED50
[6] = mice, intravenous injection, prodrugs

| Compound | ED50 (ICR mice [1]; [5]) | Anesthesia induction time (ICR mice [1]; [6]) | Anesthesia maintenance time (ICR mice [1]; [6]) | SI (ICR mice [1]; prodrugs) | TI (ICR mice [1]; prodrugs) | MTD ([2]; both sexes, intravenous) | LD50 ([2]; both sexes) | ED50 (ICR mice [3]) | Anesthesia induction time (ICR mice [3]) | Anesthesia maintenance time (ICR mice [3]) | SI (ICR mice [3]) | TI (ICR mice [3]) | LD50 [4] | also measured |
| --- | --- | --- | --- | --- | --- | --- | --- | --- | --- | --- | --- | --- | --- | --- |
| CC(C)c1cccc([C@H](C)C2CC2)c1OCOC(=O)C(NC(=O)OC(C)(C)C)C(C)C (stereo in doubt) [Compound 57, [2-[(1R)-1-cyclopropylethyl]-6-isopropyl-phenoxy]methyl(2R)-2-(tertbutoxycarbonylamino)-3-methyl-butanoate] | 36.7 mg/kg | 135.8 s | 1931.2 s | 1.3 | 3.3 | 80 mg/kg | 120 mg/kg |  |  |  |  |  |  |  |
| CC(C)c1cccc(C(C)C2CC2)c1O (centres unmarked) [Compound 3, 2-(1-cyclopropylethyl)-6-isopropylphenol] |  |  |  |  |  |  |  | 3.7 mg/kg | <15.0 s | 660.4 s | 1.7 | 6.1 | 22.7 mg/kg | HD7 (ICR mice [3]): 6.0 mg/kg; MTD [4]: 10 mg/kg |
| CCC(C)c1cccc(C(C)C2CC2)c1O (centres unmarked) [Compound 4, 2-sec-butyl-6-(1-cyclopropylethyl)phenol] |  |  |  |  |  |  |  | 4.5 mg/kg | <15.0 s | 901.7 s | 2.6 | 8.4 | 38.1 mg/kg | HD7 (ICR mice [3]): 4.0 mg/kg; MTD [4]: 25 mg/kg |
| CC(c1cccc(C2CC2)c1O)C1CC1 (centres unmarked) [Compound 5, 2-cyclopropyl-6-(1-cyclopropylethyl)phenol] |  |  |  |  |  |  |  | 14.5 mg/kg | <15.0 s | 1669.5 s | 4.0 | 5.5 | 80 mg/kg | MTD [4]: 60 mg/kg |
| CC(c1cccc(C2(C)CC2)c1O)C1CC1 (centres unmarked) [Compound 6, 2-(1-cyclopropylethyl)-6-(1-methylcyclopropyl)phenol] |  |  |  |  |  |  |  | 10.5 mg/kg | <15.0 s | 554.9 s | 2.7 | 3.8 | 40 mg/kg | MTD [4]: 30 mg/kg |
| CC(C)c1cccc(C(C)C2CCC2)c1O (centres unmarked) [Compound 7, 2-(1-cyclobutylethyl)-6-isopropylphenol] |  |  |  |  |  |  |  | 7.1 mg/kg | <15.0 s | 958.0 s | 2.7 | 5.7 | 40 mg/kg | MTD (ICR mice [3]): 30.0 mg/kg |
| CC(C)c1cccc(C(C2CC2)C2CC2)c1O [Compound 11, 2-(dicyclopropylmethyl)-6-isopropyl-phenol] |  |  |  |  |  |  |  | 30.1 mg/kg | <15.0 s | 1494.7 s | 2.5 | 3.3 | 100 mg/kg | MTD [4]: 80 mg/kg |
| CC(C)c1cccc([C@H](C)C2CCC2)c1O [Compound 14, 2-[(1R)-1-cyclobutylethyl]-6-isopropyl-phenol] |  |  |  |  |  |  |  | 6.6 mg/kg | <15.0 s | 2235.6 s | 3.7 | 5.8 | 38.2 mg/kg | MTD (ICR mice [3]): 35.0 mg/kg |
| CC(C)c1cccc([C@@H](C)C2CCC2)c1O [Compound 15, 2-[(1S)-1-cyclobutylethyl]-6-isopropyl-phenol] |  |  |  |  |  |  |  | 46.1 mg/kg | <15.0 s | 485.8 s | 1.1 | 2.3 | 107 mg/kg | MTD (ICR mice [3]): 70.0 mg/kg |
| CC(C)c1cccc([C@H](C)C2CC2)c1OCOP(=O)(OCOC(=O)C(C)(C)C)OCOC(=O)C(C)(C)C [Compound 35, [[2-[(1R)-1-cyclopropylethyl]-6-isopropyl-phenoxy]methoxy-(2,2-dimethylpropanoyloxymethoxy)phosphoryl]oxymethyl 2,2-dimethylpropanoate] |  | <15.0 s | 1915.5 s | 4.9 | 5.1 |  | 200 mg/kg |  |  |  |  |  |  | ED50 (ICR mice [1]; iv): 39.3 mg/kg; MTD ([2]; both sexes): 200 mg/kg |
| CC(=O)Oc1ccccc1C(=O)OCOc1c(C(C)C)cccc1[C@H](C)C1CC1 [Compound 38, [2-[(1R)-1-cyclopropylethyl]-6-isopropyl-phenoxy]methyl 2-acetoxybenzoate] | 26.1 mg/kg | 141.0 s | 478.9 s | 1.3 | 3.1 | 50 mg/kg | 80 mg/kg |  |  |  |  |  |  |  |
| CC(C)c1cccc([C@H](C)C2CC2)c1OCOP(=O)([O-])[O-].[K+].[K+] [Compound 45] |  |  |  |  |  |  |  |  |  |  |  |  |  | MTD ([2]; both, intravenous): 50 mg/kg; LD50 ([2]; both): 72.6 mg/kg |
| CC(C)c1cccc([C@H](C)C2CC2)c1OCOC(=O)c1cccnc1 [Compound 51, [2-[(1R)-1-cyclopropylethyl]-6-isopropyl-phenoxy]methylpyridine-3-carboxylate] | 28.3 mg/kg | 159.0 s | 1159.9 s | 1.2 | 2.8 | 40 mg/kg | 80 mg/kg |  |  |  |  |  |  |  |
| CC(C)C[C@H](N)C(=O)OCOc1c(C(C)C)cccc1[C@H](C)C1CC1 [Compound 60, [2-[(1R)-1-cyclopropylethyl]-6-isopropyl-phenoxy]methyl(2S)-2-amino-4-methyl-pentanoate trifluoroacetate] | 13.8 mg/kg | 6.0 s | 1473.0 s | 3.1 | 5.8 | 50 mg/kg | 79.6 mg/kg |  |  |  |  |  |  |  |
| CC(C)c1cccc([C@H](C)C2CC2)c1OCOC(=O)[C@@H](N)Cc1ccccc1 [Compound 62, [2-[(1R)-1-cyclopropylethyl]-6-isopropyl-phenoxy]methyl(2S)-2-amino-3-phenylpropanoate trifluoroacetate] | 7.7 mg/kg | <15.0 s | 696.9 s | 1.6 | 5.9 | 30 mg/kg | 45.6 mg/kg |  |  |  |  |  |  | ED50 and efficacy compared with propofol (ICR mice [1]; mice, prodrugs): smaller ED50 value and higher efficacy than propofol |
| CC(C)c1cccc([C@@H](C)C2CC2)c1OCOP(=O)([O-])[O-].[Na+].[Na+] [Compound 65] | 82.7 mg/kg | 82.5 s | 3278.0 s | 2.9 | 4.5 | 200 mg/kg | 370 mg/kg |  |  |  |  |  |  |  |
| CC(C)c1cccc([C@H](C)C2CCC2)c1OCOP(=O)([O-])[O-].[Na+].[Na+] [Compound 74] | 48.3 mg/kg | 96.5 s | 2378.3 s | 2.5 | 4.0 |  |  |  |  |  |  |  |  | MTD ([2]; both, intravenous): 120 mg/kg; LD50 ([2]; both): 192 mg/kg |
| C[C@@H](c1cccc([C@H](C)C2CC2)c1OCOP(=O)(O)O)C1CC1 [Compound 75, sodium (2,6-bis((R)-1-cyclopropylethyl)phenoxy)methyl phosphate] | 11.7 mg/kg | 129.2 s | 2070.4 s | 2.3 | 3.6 | 30 mg/kg | 42.4 mg/kg |  |  |  |  |  |  |  |
| C[C@H](c1cccc([C@H](C)C2CC2)c1OCOP(=O)(O)O)C1CC1 [Compound 76, sodium (2-((R)-1-cyclopropylethyl)-6-((S)-1-cyclopropylethyl)phenoxy)methyl phosphate] | 35.8 mg/kg | 111.8 s | 1992.8 s | 2.5 | 4.0 | 80 mg/kg | 143 mg/kg |  |  |  |  |  |  |  |
| C[C@H](c1cccc([C@@H](C)C2CC2)c1OCOP(=O)(O)O)C1CC1 [Compound 77, sodium (2,6-bis((S)-1-cyclopropylethyl)phenoxy)methyl phosphate] | 94.7 mg/kg | 175.4 s | 1859.1 s | 1.7 | 2.9 | 160 mg/kg | 274 mg/kg |  |  |  |  |  |  |  |
| CC[C@@H](C)c1cccc([C@H](C)C2CC2)c1OCOP(=O)([O-])[O-].[Na+].[Na+] [Compound 78] | 15.9 mg/kg | 65.2 s | 2634.6 s | 2.9 | 4.0 |  |  |  |  |  |  |  |  | MTD ([2]; both, intravenous): 40 mg/kg; LD50 ([2]; both): 63.7 mg/kg |
| CC[C@H](C)c1cccc([C@H](C)C2CC2)c1OCOP(=O)([O-])[O-].[Na+].[Na+] [Compound 79] | 24.3 mg/kg | 72.5 s | 2252.1 s | 2.1 | 3.8 |  |  |  |  |  |  |  |  | MTD ([2]; both, intravenous): 60 mg/kg; LD50 ([2]; both): 91.8 mg/kg |
